Test system: baculovirus
Test: TCID50 assay of infectious baculovirus titer after lysis (baculovirus clearance)
Assay type: cell-based
Details: for baculovirus clearance, TCID50 results: study 1, after detergent treatment (FIG. 3); for baculovirus clearance, TCID50 samples: study 2, CLB, all concentrations tested (0.25% through 1%), bulk material 7.8 log TCID50/mL
From the text: A reduction in titer of a rod-like shaped virus, i.e., the factor by which the titer of the virus to be removed is decreased, is preferably at least 5 logs, e.g. after a mixed population of parvoviral particles and 10×10^1 baculoviral virions had been separated in accordance with a method of the invention, no baculoviral virions were then detected in the filtrate. Preferably, the reduction in titer of a rod-like shaped virus that is achieved by a method of the invention is at least 5.5 logs, at least 6 logs, at least 6.5 logs, at least 7 logs, at least 8 logs, at least 9 logs, most preferably at least 10 logs. The titer can be determined by general methods known in the art, such as for example by a Tissue Culture Infectious Dose 50% (TCID50) assay. For example, the infectious baculovirus titer of a population of baculoviral virions in a sample can be determined using a TCID50 assay. This method is based on the infection of monolayers of Sf9 insect cells with infectious baculovirus in a positive control sample. A serial dilution in culture medium of the positive control sample is used to infect the cells. The cells are incubated at +28° C. for 7 days. Subsequently, the supernatants are transferred to newly prepared plates with monolayers of Sf9 insect cells and incubated at +28° C. for 7 days. As infection proceeds, the infected cells are not able to remain attached to each other and to the plate surface and form loose cells, i.e., show cytopathogenic effect (CPE), which can be observed microscopically. The titer in log 10 TCID50/mL is calculated using the Spearman-KArber method.
Analytics performed on samples during these studies included: qPCR to determine vector genome copies (GC) concentration (GC/mL), SEC-HPLC was used to determine total particle (TP) content (TP/mL) which includes empty and full particles which can only be done of samples after affinity chromatography. A TCID50 assay is a measure of infectious baculovirus titer and is used to test clearance of baculovirus after the lysis step where the detergent is added. Potency was determined based on the ability of the product to mediate production of active transgene polypeptide product (here FIX) by Huh-7 cells as compared to a reference sample. Huh-7 cells are infected and cultured to allow production of transgene polypeptide which is then quantified using a commercially obtained activity assay (221805 or 221806 from Hyphen Biomed). LDAO clearance in the drug substance (DS) was measured with an outsourced commercially available chromatographic method.
4.1 different surfactants can be used This first study involved crude bulk material generation using a shaker flask-based protocol following the process outlined in Example 1, until affinity chromatography; where the batch binding method was used. […]

SMILES	baculovirus clearance, TCID50 results	baculovirus clearance, TCID50 samples
CCCCCCCCCCCCO[C@@H]1O[C@H](CO)[C@@H](O[C@H]2O[C@H](CO)[C@@H](O)[C@H](O)[C@H]2O)[C@H](O)[C@H]1O [DDM, n-dodecyl-beta-D-maltoside]	below the limit of detection	below the limit of detection
CCCCCCCCCCCC[N+](C)(C)[O-] [LDAO, lauryldimethylamine oxide]	below the limit of detection	below the limit of detection

Source: patent US20240287545A1, “Improved lysis procedures” (uniQure biopharma B.V., priority 2021, published 2024)
